Values of other authors in PMC5594551, “Heterogeneous drug penetrance of veliparib and carboplatin measured in triple negative breast tumors” (Breast Cancer Research : BCR, 2017).

Columns and labels:
MDA-MB-436 = conditions: MDA-MB-436, BRCA1-mutated; ref [24]; cited from earlier work
HCC70 = conditions: ref [24]; cited from earlier work

O=C(c1cc(Cc2n[nH]c(=O)c3ccccc23)ccc1F)N1CCN(C(=O)C2CC2)CC1 [olaparib]
Sensitivity in vitro (MDA-MB-436): sensitivity | Sensitivity in vitro (HCC70): sensitive
